One series deals with CYP2D6 (Homo sapiens, UniProt P10635). The series can be described thus: Inhibition of human recombinant CYP2D6 at 10 uM relative to control. It is filed as ADME.
Series [1] has as its target Acetylcholinesterase (Homo sapiens) (UniProt P22303). The series can be described thus: Inhibition of AChE (unknown origin) at 10 uM relative to control.
The test system of series [2] is Rattus norvegicus. The series can be described thus: Antidepressant-like activity in Wistar rat assessed as minimum effective dose causing reduction in immobility time after oral administration with compound 15 mins prior to testing and measured for 5 mins test period by Porsolt-forced swim test. The note with it: 20 min, read-out: MED. It is filed as functional.

In series [3] the target is Beta-2 adrenergic receptor (Homo sapiens) (UniProt P07550). Briefly: Inhibition of adrenergic beta2 receptor (unknown origin) at 10 uM relative to control.
Chain of Beta-2 adrenergic receptor (Homo sapiens) (P07550 whole entry, looked up): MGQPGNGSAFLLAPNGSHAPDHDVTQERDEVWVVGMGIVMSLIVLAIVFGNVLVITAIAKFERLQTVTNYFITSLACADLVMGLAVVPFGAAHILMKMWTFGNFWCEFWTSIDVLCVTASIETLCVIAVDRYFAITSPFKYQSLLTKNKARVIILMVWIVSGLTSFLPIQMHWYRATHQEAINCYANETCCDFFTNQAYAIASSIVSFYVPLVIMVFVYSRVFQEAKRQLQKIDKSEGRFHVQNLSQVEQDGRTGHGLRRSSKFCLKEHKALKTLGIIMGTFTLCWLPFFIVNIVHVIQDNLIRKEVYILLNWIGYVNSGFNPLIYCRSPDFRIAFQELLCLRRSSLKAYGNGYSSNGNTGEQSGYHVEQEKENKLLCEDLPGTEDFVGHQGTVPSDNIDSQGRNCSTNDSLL
The target in series [4] is 5-hydroxytryptamine receptor 2B (Homo sapiens) (UniProt P41595). Briefly: Inhibition of 5-HT2B (unknown origin) at 10 uM relative to control.
Chain of 5-hydroxytryptamine receptor 2B (Homo sapiens) (P41595 whole entry): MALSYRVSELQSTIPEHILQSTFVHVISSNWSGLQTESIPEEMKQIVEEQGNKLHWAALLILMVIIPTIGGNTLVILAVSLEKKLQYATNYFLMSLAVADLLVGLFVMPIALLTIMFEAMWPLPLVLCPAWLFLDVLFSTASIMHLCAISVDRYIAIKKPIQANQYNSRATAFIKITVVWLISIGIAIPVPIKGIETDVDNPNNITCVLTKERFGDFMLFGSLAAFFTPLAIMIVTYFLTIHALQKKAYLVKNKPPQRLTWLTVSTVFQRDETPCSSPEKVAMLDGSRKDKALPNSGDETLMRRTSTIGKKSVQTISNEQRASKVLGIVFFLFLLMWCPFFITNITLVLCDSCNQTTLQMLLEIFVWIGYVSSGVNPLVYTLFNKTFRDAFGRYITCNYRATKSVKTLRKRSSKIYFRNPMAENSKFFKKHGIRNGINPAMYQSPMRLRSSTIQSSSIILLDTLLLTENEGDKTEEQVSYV
The target in series [5] is Alpha-1A adrenergic receptor (Homo sapiens) (UniProt P35348). The series can be described thus: Inhibition of adrenergic alpha-1A receptor (unknown origin) at 1 uM relative to control.
For series [6], the species on record is Homo sapiens. The series can be described thus: Inhibition of L-type calcium channel dihydropyridine binding site (unknown origin) at 10 uM relative to control.
Series [7] has as its system Rattus norvegicus. Briefly: In vivo biased agonist activity at 5-HT1A receptor in rat prefrontal brain cortex assessed as increase in ERK1/2 phosphorylation levels at […], po administered as single dose measured after 30 mins by Alphalisa assay. The series is classed as functional, organism-based. (In general: Bead proximity is the source of the signal in Alpha formats.)

The species entered for series [8] is Homo sapiens. Briefly: Inhibition of delta 2-type opioid receptor (unknown origin) at 10 uM relative to control.
Series [9] concerns the target Muscarinic acetylcholine receptor M4 (Homo sapiens) (UniProt P08173). Briefly: Inhibition of muscarinic M4 receptor (unknown origin) at 1 uM relative to control.
Series [10] deals with D(3) dopamine receptor (Homo sapiens) (UniProt P35462). Briefly: Inhibition of dopamine D3 receptor (unknown origin) at 1 uM relative to control.
Chain of D(3) dopamine receptor (Homo sapiens) (P35462 whole entry): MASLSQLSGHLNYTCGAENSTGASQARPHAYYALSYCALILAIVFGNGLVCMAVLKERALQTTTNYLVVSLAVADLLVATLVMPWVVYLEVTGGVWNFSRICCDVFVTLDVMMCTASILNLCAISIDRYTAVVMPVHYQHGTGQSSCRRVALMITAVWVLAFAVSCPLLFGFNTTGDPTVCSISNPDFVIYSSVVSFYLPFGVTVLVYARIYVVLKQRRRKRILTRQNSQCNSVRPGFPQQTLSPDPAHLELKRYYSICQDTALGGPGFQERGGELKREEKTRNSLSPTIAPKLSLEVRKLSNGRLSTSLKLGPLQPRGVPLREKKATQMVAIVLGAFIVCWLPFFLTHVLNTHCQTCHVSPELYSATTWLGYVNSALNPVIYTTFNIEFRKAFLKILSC
The target in series [11] is Vasopressin V1a receptor (Homo sapiens) (UniProt P37288). Briefly: Inhibition of vasopressin V1a receptor (unknown origin) at 10 uM relative to control.
The nature of series [12]: In vivo biased agonist activity at 5-HT1A receptor in rat prefrontal cortex assessed as serum concentration causing 50% increase in ERK1/2 phosphorylation level after oral administration measured 15 mins post drug administration.
For series [13], the target named is T1, Adrenergic receptor alpha-1 (Rattus norvegicus, UniProt P15823+P23944+P43140).
T1 sequence (P15823 whole entry): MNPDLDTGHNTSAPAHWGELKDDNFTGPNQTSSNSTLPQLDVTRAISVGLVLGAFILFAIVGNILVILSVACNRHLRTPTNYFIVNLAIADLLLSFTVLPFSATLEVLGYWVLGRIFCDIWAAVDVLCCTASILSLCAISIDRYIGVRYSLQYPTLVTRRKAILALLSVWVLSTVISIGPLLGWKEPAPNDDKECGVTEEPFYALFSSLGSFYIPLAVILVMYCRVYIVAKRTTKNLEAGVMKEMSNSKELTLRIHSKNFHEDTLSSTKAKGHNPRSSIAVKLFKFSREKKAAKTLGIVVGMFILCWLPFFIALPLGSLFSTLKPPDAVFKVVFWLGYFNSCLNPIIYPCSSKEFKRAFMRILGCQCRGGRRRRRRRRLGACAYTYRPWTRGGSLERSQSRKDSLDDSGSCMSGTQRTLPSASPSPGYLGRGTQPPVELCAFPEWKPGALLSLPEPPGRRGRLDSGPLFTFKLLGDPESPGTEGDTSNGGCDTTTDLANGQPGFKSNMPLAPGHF
T1 sequence (P23944 whole entry): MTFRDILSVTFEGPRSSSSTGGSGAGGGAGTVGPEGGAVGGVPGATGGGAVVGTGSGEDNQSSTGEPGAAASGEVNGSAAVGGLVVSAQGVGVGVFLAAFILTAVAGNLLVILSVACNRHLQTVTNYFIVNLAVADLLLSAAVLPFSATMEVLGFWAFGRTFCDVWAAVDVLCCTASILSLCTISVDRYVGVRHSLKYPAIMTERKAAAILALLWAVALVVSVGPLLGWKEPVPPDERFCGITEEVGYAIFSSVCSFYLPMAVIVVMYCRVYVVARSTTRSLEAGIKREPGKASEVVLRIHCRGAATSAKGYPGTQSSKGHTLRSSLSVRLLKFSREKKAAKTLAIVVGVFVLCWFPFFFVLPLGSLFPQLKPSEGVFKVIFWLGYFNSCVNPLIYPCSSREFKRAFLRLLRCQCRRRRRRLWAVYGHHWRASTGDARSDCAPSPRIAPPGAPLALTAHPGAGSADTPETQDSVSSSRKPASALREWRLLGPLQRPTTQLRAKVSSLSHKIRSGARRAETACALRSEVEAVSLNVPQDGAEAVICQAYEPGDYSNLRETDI
T1 sequence (P43140 whole entry): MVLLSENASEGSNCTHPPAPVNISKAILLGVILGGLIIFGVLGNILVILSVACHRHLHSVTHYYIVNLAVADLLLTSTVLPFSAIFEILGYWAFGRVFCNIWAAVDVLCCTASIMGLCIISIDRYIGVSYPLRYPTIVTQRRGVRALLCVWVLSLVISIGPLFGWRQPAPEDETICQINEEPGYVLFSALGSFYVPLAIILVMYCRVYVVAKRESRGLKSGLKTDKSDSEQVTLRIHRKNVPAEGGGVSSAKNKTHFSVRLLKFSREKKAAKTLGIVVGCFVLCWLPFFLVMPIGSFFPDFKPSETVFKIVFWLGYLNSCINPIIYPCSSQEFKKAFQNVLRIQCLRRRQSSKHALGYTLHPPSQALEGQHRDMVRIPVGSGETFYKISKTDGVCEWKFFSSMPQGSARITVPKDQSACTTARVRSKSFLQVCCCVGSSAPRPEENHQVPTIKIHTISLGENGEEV
Briefly: Displacement of [3H]-prazosin from alpha1 adrenergic receptor in rat cortex measured after 30 mins by microbeta2 scintillation counting method. It is filed as tissue-based. (In general: In a radioligand displacement assay an active substance lowers the binding of a labelled ligand.)

The nature of series [14]: In vivo biased agonist activity at 5-HT1A receptor in rat prefrontal brain cortex assessed as time required to cause maximum increase in ERK1/2 phosphorylation levels at […], po administered as single dose by Alphalisa assay. It is filed as functional.
For series [15], the target named is Cannabinoid receptor 2 (Homo sapiens) (UniProt P34972). The series can be described thus: Inhibition of cannabinoid receptor 2 (unknown origin) at 10 uM relative to control.
Chain of Cannabinoid receptor 2 (Homo sapiens) (P34972 whole entry): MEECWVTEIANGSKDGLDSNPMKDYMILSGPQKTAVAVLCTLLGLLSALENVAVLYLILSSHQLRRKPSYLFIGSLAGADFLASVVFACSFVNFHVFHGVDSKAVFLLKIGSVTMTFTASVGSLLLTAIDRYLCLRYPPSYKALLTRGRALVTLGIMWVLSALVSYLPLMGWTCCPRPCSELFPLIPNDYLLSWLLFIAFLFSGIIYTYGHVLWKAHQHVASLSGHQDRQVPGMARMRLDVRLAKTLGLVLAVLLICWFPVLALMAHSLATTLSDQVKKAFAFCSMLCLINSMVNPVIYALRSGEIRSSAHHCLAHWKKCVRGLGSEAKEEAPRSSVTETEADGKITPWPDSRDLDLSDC
Series [16] concerns the target Mu-type opioid receptor (Homo sapiens) (UniProt P35372). The series can be described thus: Inhibition of mu opioid receptor (unknown origin) at 10 uM relative to control.
Series [17] deals with Rattus norvegicus. The series can be described thus: Antidepressant-like activity in Wistar rat assessed as reduction in immobility time at […], po administered 15 mins prior to testing and measured for 5 mins test period by Porsolt-forced swim test. The series is classed as functional, organism-based. Conditions: time 20.0 min.
For series [18], the species on record is Homo sapiens. The series can be described thus: Inhibition of potassium channel (unknown origin) at 10 uM relative to control.
The nature of a further series: in vitro. The note with it: human, Caco-2, pH 6.5.
In series [19] the target is Muscarinic acetylcholine receptor M1 (Homo sapiens) (UniProt P11229). Briefly: Inhibition of muscarinic M1 receptor (unknown origin) at 10 uM relative to control.
Chain of Muscarinic acetylcholine receptor M1 (Homo sapiens) (P11229 whole entry): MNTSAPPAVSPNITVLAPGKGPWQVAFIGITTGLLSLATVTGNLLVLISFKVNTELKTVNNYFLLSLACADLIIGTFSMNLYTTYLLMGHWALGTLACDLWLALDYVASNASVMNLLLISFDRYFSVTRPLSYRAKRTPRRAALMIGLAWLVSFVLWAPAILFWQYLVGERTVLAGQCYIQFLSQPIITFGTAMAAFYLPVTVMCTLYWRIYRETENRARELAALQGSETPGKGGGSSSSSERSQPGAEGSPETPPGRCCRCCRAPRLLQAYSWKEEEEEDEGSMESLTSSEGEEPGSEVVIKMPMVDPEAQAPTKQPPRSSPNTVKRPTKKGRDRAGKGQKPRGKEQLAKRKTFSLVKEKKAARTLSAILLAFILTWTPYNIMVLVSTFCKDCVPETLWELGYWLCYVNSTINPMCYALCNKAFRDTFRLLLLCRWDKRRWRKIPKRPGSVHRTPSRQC
The target in a further series is CYP3A4 (Homo sapiens, UniProt P08684). Briefly: Inhibition of human recombinant CYP3A4 at 10 uM relative to control. The series is classed as ADME.
Chain of CYP3A4 (P08684 whole entry): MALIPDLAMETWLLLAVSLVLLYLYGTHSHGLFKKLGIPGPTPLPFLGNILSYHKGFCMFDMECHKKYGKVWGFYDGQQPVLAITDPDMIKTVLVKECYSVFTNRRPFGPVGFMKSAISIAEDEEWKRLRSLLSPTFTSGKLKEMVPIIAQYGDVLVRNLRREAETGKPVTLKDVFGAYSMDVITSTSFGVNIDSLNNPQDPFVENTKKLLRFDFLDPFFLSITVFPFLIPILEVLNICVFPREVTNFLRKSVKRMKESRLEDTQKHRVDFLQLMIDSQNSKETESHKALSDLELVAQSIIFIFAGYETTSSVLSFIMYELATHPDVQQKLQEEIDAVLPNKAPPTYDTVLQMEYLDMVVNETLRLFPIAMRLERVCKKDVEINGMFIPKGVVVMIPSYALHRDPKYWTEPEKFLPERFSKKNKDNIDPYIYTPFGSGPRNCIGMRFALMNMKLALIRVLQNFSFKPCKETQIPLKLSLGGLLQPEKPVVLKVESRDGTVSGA

Structures are written as SMILES. The source made the active and inactive calls. No cut-off for these calls is given here.

Chain of CYP2D6 (P10635 whole entry): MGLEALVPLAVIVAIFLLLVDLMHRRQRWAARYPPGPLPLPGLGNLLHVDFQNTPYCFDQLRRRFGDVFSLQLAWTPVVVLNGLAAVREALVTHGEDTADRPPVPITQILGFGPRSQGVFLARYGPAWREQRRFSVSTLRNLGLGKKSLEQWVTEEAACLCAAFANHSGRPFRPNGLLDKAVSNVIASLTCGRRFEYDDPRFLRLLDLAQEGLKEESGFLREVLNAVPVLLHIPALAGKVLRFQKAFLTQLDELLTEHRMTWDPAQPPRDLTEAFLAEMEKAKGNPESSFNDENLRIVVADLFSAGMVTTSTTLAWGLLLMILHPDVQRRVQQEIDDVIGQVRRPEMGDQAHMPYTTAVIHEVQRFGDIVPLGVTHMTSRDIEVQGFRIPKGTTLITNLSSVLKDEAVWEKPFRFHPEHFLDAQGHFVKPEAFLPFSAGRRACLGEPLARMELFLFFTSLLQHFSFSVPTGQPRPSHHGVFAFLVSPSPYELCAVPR
Chain of Muscarinic acetylcholine receptor M4 (Homo sapiens) (P08173 whole entry): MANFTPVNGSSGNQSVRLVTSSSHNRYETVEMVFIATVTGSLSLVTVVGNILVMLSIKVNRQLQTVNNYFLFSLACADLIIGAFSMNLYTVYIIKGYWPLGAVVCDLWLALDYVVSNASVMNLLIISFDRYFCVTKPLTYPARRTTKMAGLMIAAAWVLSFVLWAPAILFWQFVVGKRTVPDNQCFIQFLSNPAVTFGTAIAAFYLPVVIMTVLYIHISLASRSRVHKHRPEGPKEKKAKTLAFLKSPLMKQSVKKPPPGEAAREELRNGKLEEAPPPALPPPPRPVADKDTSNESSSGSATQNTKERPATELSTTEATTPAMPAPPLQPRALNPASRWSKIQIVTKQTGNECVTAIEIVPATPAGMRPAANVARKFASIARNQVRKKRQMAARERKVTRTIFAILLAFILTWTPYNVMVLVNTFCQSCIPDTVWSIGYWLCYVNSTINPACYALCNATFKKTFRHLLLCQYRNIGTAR
Chain of Acetylcholinesterase (Homo sapiens) (P22303 whole entry): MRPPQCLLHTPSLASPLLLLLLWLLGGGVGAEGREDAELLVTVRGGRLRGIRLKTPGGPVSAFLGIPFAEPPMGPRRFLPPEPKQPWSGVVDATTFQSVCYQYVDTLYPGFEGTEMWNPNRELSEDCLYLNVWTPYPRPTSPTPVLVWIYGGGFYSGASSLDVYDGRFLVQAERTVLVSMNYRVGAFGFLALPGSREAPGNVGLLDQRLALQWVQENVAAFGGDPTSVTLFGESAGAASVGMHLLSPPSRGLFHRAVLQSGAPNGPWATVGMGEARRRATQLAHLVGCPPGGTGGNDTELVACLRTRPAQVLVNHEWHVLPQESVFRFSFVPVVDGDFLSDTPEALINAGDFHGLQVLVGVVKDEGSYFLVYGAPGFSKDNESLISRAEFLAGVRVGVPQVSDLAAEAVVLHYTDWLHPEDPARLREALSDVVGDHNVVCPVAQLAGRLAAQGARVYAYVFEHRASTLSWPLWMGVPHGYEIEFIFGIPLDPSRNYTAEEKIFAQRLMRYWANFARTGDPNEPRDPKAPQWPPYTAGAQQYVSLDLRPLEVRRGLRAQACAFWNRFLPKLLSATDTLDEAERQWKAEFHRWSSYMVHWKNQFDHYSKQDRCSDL
Chain of Mu-type opioid receptor (Homo sapiens) (P35372 whole entry): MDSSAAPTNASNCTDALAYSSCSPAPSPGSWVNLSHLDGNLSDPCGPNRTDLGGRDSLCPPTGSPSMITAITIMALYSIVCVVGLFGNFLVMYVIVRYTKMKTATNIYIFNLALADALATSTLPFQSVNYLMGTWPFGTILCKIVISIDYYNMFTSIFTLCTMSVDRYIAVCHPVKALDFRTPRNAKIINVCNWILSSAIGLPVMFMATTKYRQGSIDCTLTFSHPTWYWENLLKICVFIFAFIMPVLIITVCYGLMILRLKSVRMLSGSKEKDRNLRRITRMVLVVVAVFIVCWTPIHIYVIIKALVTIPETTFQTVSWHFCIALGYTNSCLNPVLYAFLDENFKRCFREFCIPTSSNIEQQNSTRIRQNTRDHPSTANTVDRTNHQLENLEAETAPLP

Take `O=C(c1ccc(F)c(Cl)c1)N1CCC(F)(CNCCOc2ccccn2)CC1`: the inhibition at 10 µM worked out at 15.9% at CYP2D6 and 23.2% at CYP3A4. In addition, the inhibition in series [1] was -2.9%; in [3], 3.8%; in [4], 39.7%; in series [5] it was 87.6%; in the series listed under Homo sapiens [6], 18.2%; in the series filed under Homo sapiens [8], 7.2%. In addition, the inhibition in series [9] is 8.8%; in series [10] it was 39.1%; in series [11] it was 7%; in [15], -3.1%; in series [16], 42.9%; in the series filed under Homo sapiens [18], 3.8%. The inhibition in series [19] worked out at 12.9%. In the series with Rattus norvegicus [2], the minimal effective dose came to 0.16 mg/kg. In addition, the outcome with Rattus norvegicus [7] and with Rattus norvegicus [17] was Active. The EC in series [12] was found to be 17.2 ng/mL. This compound also returned a pKi in [13] of 6.78. Besides, the Time in [14] worked out at 15 min. This compound came in with a Papp A→B in “in vitro” of 25.9 ×10⁻⁶ cm/s.

One may read the inhibition as the relative decrease from the control value, in per cent. In general, pKi refers to the Ki on a negative log10 scale, so that one unit is a factor of ten. The low end stands for a high Ki, the high end for a low Ki. Broadly, the Papp A→B is the apparent permeability from the apical to the basolateral side of a cell layer.

The values are drawn from ChEMBL document CHEMBL4706479, “Novel Aryloxyethyl Derivatives of 1-(1-Benzoylpiperidin-4-yl)methanamine as the Extracellular Regulated Kinases 1/2 (ERK1/2) Phosphorylation-Preferring Serotonin 5-HT Receptor-Biased Agonists with Robust Antidepressant-like Activity” (J Med Chem, 2019).
